Laboratory results from US20250228835A1, “PYRIDINYLOXYPYRIDINES AND RELATED COMPOUNDS AND THEIR USE IN TREATING MEDICAL CONDITIONS” (Rectify Pharmaceuticals, Inc., priority 2024, published 2025).

target: T1, ABCD2 WT (Homo sapiens, UniProt Q9UBJ2); test: D2 correction dose-response assay: ABCD2 WT HiBit protein expression; assay type: cell-based; details: HEK-293/ABCD2 WT cells, 24 hours treatment, HiBit luminescence; class combines EC50 and Mean MaxAct (fold); read-out: ABCD2 WT EC50, Emax
T1 construct: expressed in transfected cells
T1 sequence (Q9UBJ2 1-740): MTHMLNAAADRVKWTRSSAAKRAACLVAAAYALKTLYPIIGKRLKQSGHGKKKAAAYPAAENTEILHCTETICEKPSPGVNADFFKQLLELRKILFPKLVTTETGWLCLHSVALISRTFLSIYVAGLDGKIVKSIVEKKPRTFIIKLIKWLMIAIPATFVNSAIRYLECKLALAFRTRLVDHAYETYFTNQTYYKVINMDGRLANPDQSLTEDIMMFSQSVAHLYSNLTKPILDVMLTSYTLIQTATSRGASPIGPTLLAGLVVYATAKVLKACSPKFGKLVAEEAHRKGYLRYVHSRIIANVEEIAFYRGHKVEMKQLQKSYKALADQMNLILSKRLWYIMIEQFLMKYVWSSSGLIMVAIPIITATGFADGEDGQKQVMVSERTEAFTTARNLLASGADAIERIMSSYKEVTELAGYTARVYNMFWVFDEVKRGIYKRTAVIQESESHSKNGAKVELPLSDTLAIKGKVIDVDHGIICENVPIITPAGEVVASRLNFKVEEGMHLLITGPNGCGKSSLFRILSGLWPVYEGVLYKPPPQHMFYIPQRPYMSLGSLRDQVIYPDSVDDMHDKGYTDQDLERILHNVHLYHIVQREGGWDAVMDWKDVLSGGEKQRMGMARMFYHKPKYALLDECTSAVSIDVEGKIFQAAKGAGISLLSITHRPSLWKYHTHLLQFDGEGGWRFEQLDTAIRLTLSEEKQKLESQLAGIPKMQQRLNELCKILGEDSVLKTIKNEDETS
Summary of the method: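 HEK-293 cells stably expressing HiBit-tagged human ABCD2 WT were treated with 11 doses (3-fold dilutions, top final 30 μM, 0.3% DMSO) for 24 h at 37 °C. Expression was measured by HiBit lytic luminescence after 1 h at 25 °C, giving EC50 and Emax.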

SMILES	EC50 [µM]
Cc1cc(C)c(Oc2nc(-c3cncc(Cl)c3)ccc2S(=O)(=O)NC(c2ccccn2)C(F)(F)F)c(C)c1 (single isomer, unassigned) [Compound I-79]	1 to 10
Cc1cc(C)c(Oc2nc(-c3cncc(Cl)c3)ccc2S(=O)(=O)NC(c2ccccn2)C(F)(F)F)c(C)c1 (single isomer, unassigned) [Compound I-80]	1 to 10
Cc1cc(C)c(Oc2nc(-c3cncc(C(N)=O)c3)ccc2NS(C)(=O)=O)c(C2CC2)n1 [Compound I-1]	1 to 10
Cc1cc(C)c(Oc2nc(-c3cn[nH]c3)ccc2NS(C)(=O)=O)c(C2CC2)c1 [Compound I-2]	10 to 25
Cc1ccc(Oc2nc(-c3cncc(C#N)c3)ccc2NS(C)(=O)=O)c(C)n1 [Compound I-3]	1 to 10
Cc1cc(C)c(Oc2nc(-c3cncc(Cl)c3)ccc2N(C2CC2)S(C)(=O)=O)c(C)c1 [Compound I-42]	1 to 10
Cc1cc(C)c(Oc2nc(N3CC4(C3)CN(S(=O)(=O)C3CC3)C4)ccc2NS(C)(=O)=O)c(C)c1 [Compound I-43]	> 25
Cc1cc(C)c(Oc2nc(N3CCN(S(=O)(=O)C4CC4)CC3)ccc2NS(C)(=O)=O)c(C)c1 [Compound I-44]	10 to 25
Cc1cc(C)c(Oc2nc(-c3ccc(C#N)nc3)ccc2NS(C)(=O)=O)c(C)c1 [Compound I-45]	< 1
Cc1cc(C)c(Oc2nc(-c3cncc(Cl)c3)ccc2NS(C)(=O)=O)c(C)n1 [Compound I-46]	< 1
Cc1cc(C)c(Oc2nc(N3CCN(C(=O)C4CC4)CC3)ccc2NS(C)(=O)=O)c(C)c1 [Compound I-47]	1 to 10
Cc1cc(C)c(Oc2nc(-c3cncc(Cl)c3)ccc2N(C)S(C)(=O)=O)c(C)c1 [Compound I-48]	< 1
Cc1cc(C)c(Oc2nc(-c3cncc(Cl)c3)ccc2NS(=O)(=O)C2CC2)c(C)c1 [Compound I-49]	> 25
CC(=O)NC1CN(c2ccc(NS(=O)(=O)c3cccnc3)c(Oc3c(C)cc(C)cc3C3CC3)n2)C1 [Compound I-50]	> 25
COC1CC(S(=O)(=O)Nc2ccc(-c3cncc(Cl)c3)nc2Oc2c(C)cc(C)cc2C)C1 (stereo not drawn) [Compound I-51]	> 25
Cc1cc(C)c(Oc2nc(-c3cncc(Cl)c3)ccc2N(C)S(=O)(=O)c2cnn(C)c2)c(C2CC2)c1 [Compound I-52]	< 1
Cc1cc(C)c(Oc2nc(-c3cncc(Cl)c3)ccc2N(C)S(=O)(=O)c2cccnc2)c(C2CC2)c1 [Compound I-53]	> 25
Cc1cc(C)c(Oc2nc(-c3cncc(Cl)c3)ccc2NS(=O)(=O)c2cccnc2)c(C2CC2)c1 [Compound I-54]	1 to 10
Cc1cc(C)c(Oc2nc(-c3cncc(Cl)c3)ccc2NS(C)(=O)=O)c(C)c1 [Compound I-55]	< 1
Cc1cc(C)c(Oc2cc(-c3cncc(Cl)c3)ncc2NS(C)(=O)=O)c(C)c1 [Compound I-56]	1 to 10
Cc1cc(C)c(Oc2nc(-c3cncc(Cl)c3)ccc2NS(C)(=O)=O)c(C2CC2)c1 [Compound I-57]	< 1
Cc1cc(C)c(Oc2nc(-c3cncc(Cl)c3)ccc2NS(=O)(=O)c2cnn(C)c2)c(C2CC2)c1 [Compound I-58]	> 25
Cc1cc(C)c(Oc2cc(-c3cncc(Cl)c3)cnc2N(C)S(=O)(=O)c2cnn(C)c2)c(C)c1 [Compound I-59]	1 to 10
Cc1cc(C)c(Oc2cc(-c3cncc(Cl)c3)cnc2NS(C)(=O)=O)c(C)c1 [Compound I-60]	1 to 10
Cc1cc(C)c(Oc2cc(-c3cncc(Cl)c3)cnc2NS(=O)(=O)c2cnn(C)c2)c(C)c1 [Compound I-61]	1 to 10
Cc1cc(C)c(Oc2nc(-c3cncc(Cl)c3)ccc2NS(=O)(=O)Cc2ccccn2)c(C)c1 [Compound I-62]	< 1
COc1ccc2nc[nH]c2c1S(=O)(=O)Nc1ccc(-c2cncc(Cl)c2)nc1Oc1c(C)cc(C)cc1C [Compound I-63]	> 25

SMILES	EC50 [µM]
Cc1cc(C)c(Oc2nc(-c3cncc(Cl)c3)ccc2N(C)S(=O)(=O)Cc2ccccc2)c(C)c1 [Compound I-64]	1 to 10
Cc1cc(C)c(Oc2nc(-c3cncc(Cl)c3)ccc2NS(=O)(=O)Cc2ccccc2)c(C)c1 [Compound I-65]	> 25
Cc1cc(C)c(Oc2nc(-c3cncc(Cl)c3)ccc2N2CCCCS2(=O)=O)c(C)c1 [Compound I-66]	10 to 25
Cc1cc(C)c(Oc2nc(-c3cncc(Cl)c3)ccc2N2CCCS2(=O)=O)c(C)c1 [Compound I-67]	1 to 10
Cc1cc(C)c(Oc2nc(-c3cncc(Cl)c3)ccc2NS(=O)(=O)C(C)(C)C)c(C)c1 [Compound I-68]	> 25
Cc1cc(C)c(Oc2nc(-c3cncc(Cl)c3)ccc2N(C)S(=O)(=O)c2cccnc2)c(C)c1 [Compound I-69]	> 25
Cc1cc(C)c(Oc2nc(-c3cncc(Cl)c3)ccc2N(C)S(=O)(=O)c2cnn(C)c2)c(C)c1 [Compound I-70]	< 1
Cc1cc(C)c(Oc2nc(-c3cncc(Cl)c3)ccc2NS(=O)(=O)c2cccnc2)c(C)c1 [Compound I-71]	< 25
Cc1cc(C)c(Oc2nc(-c3cncc(Cl)c3)ccc2NS(=O)(=O)c2cnn(C)c2)c(C)c1 [Compound I-72]	< 1
CNS(=O)(=O)c1ccc(N2CCN(C(=O)C3CC3)CC2)nc1Oc1c(C)cc(C)cc1C [Compound I-73]	1 to 10
COC1CC(NS(=O)(=O)c2ccc(-c3cncc(Cl)c3)nc2Oc2c(C)cc(C)cc2C2CC2)C1 (stereo not drawn) [Compound I-74]	< 25
Cc1cc(C)c(Oc2nc(-c3cncc(Cl)c3)ccc2S(=O)(=O)Nc2cnn(C)c2)c(C2CC2)c1 [Compound I-75]	< 25
Cc1cc(C)c(Oc2nc(-c3cncc(Cl)c3)ccc2S(=O)(=O)NCc2ccccn2)c(C2CC2)c1 [Compound I-76]	1 to 10
CNS(=O)(=O)c1ccc(-c2cncc(Cl)c2)nc1Oc1c(C)cc(C)cc1C1CC1 [Compound I-77]	< 1
COC1CC(NS(=O)(=O)c2ccc(-c3cncc(Cl)c3)nc2Oc2c(C)cc(C)cc2C)C1 (stereo not drawn) [Compound I-78]	1 to 10
Cc1cc(C)c(Oc2nc(-c3cncc(Cl)c3)ccc2S(=O)(=O)N[C@H](c2ccccc2)C(F)(F)F)c(C)c1 [Compound I-81]	1 to 10
Cc1cc(C)c(Oc2nc(-c3cncc(Cl)c3)ccc2S(=O)(=O)N[C@@H](c2ccccc2)C(F)(F)F)c(C)c1 [Compound I-83]	1 to 10
CNS(=O)(=O)c1cnc(-c2cncc(Cl)c2)cc1Oc1c(C)cc(C)cc1C [Compound I-84]	10 to 25
Cc1cc(C)c(Oc2nc(-c3cncc(Cl)c3)ccc2S(=O)(=O)N(C)Cc2ccccc2)c(C)c1 [Compound I-85]	1 to 10
Cc1cc(C)c(Oc2nc(-c3cncc(Cl)c3)ccc2S(=O)(=O)NCc2ccccn2)c(C)c1 [Compound I-86]	1 to 10
Cc1cc(C)c(Oc2nc(-c3cncc(Cl)c3)ccc2S(=O)(=O)NCc2cc(C(F)(F)F)ccn2)c(C)c1 [Compound I-87]	> 25
Cc1cc(C)c(Oc2nc(-c3cncc(Cl)c3)ccc2S(=O)(=O)NCc2ccccc2)c(C)c1 [Compound I-88]	1 to 10
CNS(=O)(=O)c1ncc(-c2cncc(Cl)c2)nc1Oc1c(C)cc(C)c(Cl)c1C [Compound I-89]	1 to 10
Cc1cc(C)c(Oc2nc(-c3cncc(Cl)c3)cnc2S(N)(=O)=O)c(C)c1Cl [Compound I-90]	1 to 10
CNS(=O)(=O)c1ccc(N2CCN(C)C(=O)C2)nc1Oc1c(C)cc(C)cc1C [Compound I-92]	> 25
Cc1cc(C)c(Oc2nc(-c3cncc(Cl)c3)ncc2S(N)(=O)=O)c(C)c1Cl [Compound I-93]	1 to 10
Cc1cc(C)c(Oc2nc(-c3cncc(Cl)c3)ccc2S(=O)(=O)Nc2cnn(C)c2)c(C)c1 [Compound I-94]	1 to 10
